These are literature values, as cited in US20040242457A1, “Use of anti-glaucoma drugs to treat visual defects associated with the use of a GABAergic agent” (priority 2003, published 2004).

For the data set the following is noted: reports from the literature.

As to `C=CC(N)CCC(=O)O` (racemic) [GVG, 4-amino-hex-5-enoic acid], the “patients treated with GVG who develop visual field defects (VFDs)” value is recorded as 25-50%.
